In ChEMBL document CHEMBL4699467, “Progress towards a stable cephalosporin-halogenated phenazine conjugate for antibacterial prodrug applications” (Bioorg Med Chem Lett, 2020):
Converted amounts (≈) assume the structure as drawn.

Assays:
[1] = system: Staphylococcus aureus; assay: Antibacterial activity against methicillin-resistant Staphylococcus aureus BAA-1707 assessed as inhibition of bacterial growth incubated for 16 to 18 hrs by CLSI protocol based two fold serial dilution method; type: functional; conditions: time hrs 16-18
[2] = Stability of the compound in methicillin-resistant Staphylococcus aureus BAA-1707 for 16 to 18 hrs; type: ADME; conditions: time 16-18 hrs

| Compound | MIC [1] [µM] | Stabilty [2] |
| --- | --- | --- |
| Oc1c(Br)cc(Br)c2nc3ccccc3nc12 | 1 (≈ 0.354 µg/mL) | – |
| O=C(Cc1cccs1)N[C@@H]1C(=O)N2C(C(=O)OC(c3ccccc3)c3ccccc3)=C(COC(=O)Oc3c(Br)cc(Br)c4nc5ccccc5nc34)CS[C@H]12 | > 100 | Stable |
